Experimental data taken from PMC3360617, “Pan-Pathway Based Interaction Profiling of FDA-Approved Nucleoside and Nucleobase Analogs with Enzymes of the Human Nucleotide Metabolism” (PLoS ONE, 2012).

Assays:
deoxycytidine kinase = target: T1, deoxycytidine kinase (Homo sapiens, UniProt P27707); experiment: thermal shift assay (DSLS), concentration-dependent; type: binding; settings: read-out: 500 μM NA (+1 mM ATP)
T1 construct: gene DCK

Guanine deaminase [1] = target: T2, Guanine deaminase (Homo sapiens, UniProt Q9Y2T3); experiment: as above; type: binding
T2 construct: gene GDA
T2 sequence (Q9Y2T3 1-454): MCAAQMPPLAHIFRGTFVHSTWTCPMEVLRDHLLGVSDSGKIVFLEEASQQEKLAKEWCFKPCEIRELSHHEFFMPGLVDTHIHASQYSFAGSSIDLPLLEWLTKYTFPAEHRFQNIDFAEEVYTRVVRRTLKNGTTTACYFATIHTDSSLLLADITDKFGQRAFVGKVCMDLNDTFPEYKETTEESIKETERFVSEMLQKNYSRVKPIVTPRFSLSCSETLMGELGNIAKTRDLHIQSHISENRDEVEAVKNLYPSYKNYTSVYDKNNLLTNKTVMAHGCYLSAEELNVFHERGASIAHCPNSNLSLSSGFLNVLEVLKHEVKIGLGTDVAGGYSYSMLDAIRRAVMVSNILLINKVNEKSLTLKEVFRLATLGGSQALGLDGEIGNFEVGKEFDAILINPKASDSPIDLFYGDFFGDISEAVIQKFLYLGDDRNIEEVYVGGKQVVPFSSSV

Uridine phosphorylase 1 [2] = target: T3, Uridine phosphorylase 1 (Homo sapiens, UniProt Q16831); experiment: as above; type: binding; settings: read-out: delta_Tm
T3 construct: gene UPP1
T3 sequence (Q16831 whole entry): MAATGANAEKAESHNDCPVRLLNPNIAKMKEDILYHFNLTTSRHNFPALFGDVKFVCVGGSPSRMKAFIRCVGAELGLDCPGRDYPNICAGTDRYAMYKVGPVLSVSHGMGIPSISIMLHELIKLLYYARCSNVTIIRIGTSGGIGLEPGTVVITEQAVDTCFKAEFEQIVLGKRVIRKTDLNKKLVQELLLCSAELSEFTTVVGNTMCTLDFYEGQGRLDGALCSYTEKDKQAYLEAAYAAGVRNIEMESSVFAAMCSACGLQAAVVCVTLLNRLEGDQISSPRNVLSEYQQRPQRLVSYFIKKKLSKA

Uridine phosphorylase 1 [3] = target: T3, Uridine phosphorylase 1; experiment: thermal shift assay (DSLS), concentration-dependent; enhanced by […] ribose-1-phosphate; type: binding; settings: read-out: ΔTagg (NA+R1P)
Guanine deaminase [4] = target: T2, Guanine deaminase; experiment: co-crystal structure at […] Å; thermal shift (DSLS), concentration-dependent; type: binding; settings: read-out: delta_Tm
Uridine phosphorylase 1 [5] = target: T3, Uridine phosphorylase 1; experiment: HPLC enzyme kinetics with uridine (Lineweaver-Burk); also thermal shift ([…]°C at […]); type: biochemical

T1 sequence (P27707 whole entry): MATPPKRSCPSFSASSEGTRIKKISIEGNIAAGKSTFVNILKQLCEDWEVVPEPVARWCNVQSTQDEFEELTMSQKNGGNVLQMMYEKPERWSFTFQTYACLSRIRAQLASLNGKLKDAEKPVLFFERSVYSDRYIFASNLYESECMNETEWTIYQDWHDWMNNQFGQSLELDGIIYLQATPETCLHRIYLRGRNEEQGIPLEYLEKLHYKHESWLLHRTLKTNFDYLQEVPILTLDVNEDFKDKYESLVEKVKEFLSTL

Nc1ncn([C@H]2C[C@H](O)[C@@H](CO)O2)c(=O)n1 [Decitabine]
ΔTm at 500 µM (deoxycytidine kinase): 7.29 °C

Nc1ccn([C@@H]2O[C@H](CO)[C@@H](O)C2(F)F)c(=O)n1 [Gemcitabine]
ΔTm at 500 µM (deoxycytidine kinase): 5.22 °C

Nc1nc2c(ncn2COCCO)c(=O)[nH]1 [aciclovir]
thermal shift assay (DSLS), concentration-dependent (Guanine deaminase [1]): Interactions were detected between GDA and valaciclovir, aciclovir, penciclovir, ganciclovir, thioguanine and mercaptopurine

O=c1[nH]c(=O)n([C@H]2C[C@H](O)[C@@H](CO)O2)cc1I [idoxuridine]
ΔTm at 500 µM (Uridine phosphorylase 1 [2]): 1.72 °C

Nc1nc2c(ncn2CCC(CO)CO)c(=O)[nH]1 [penciclovir]
thermal shift assay (DSLS), concentration-dependent (Guanine deaminase [1]): Thioguanine, ganciclovir, aciclovir, penciclovir, valaciclovir, flucytosine and idoxuridine showed concentration-dependent stabilization of GDA

Nc1nc2nc[nH]c2c(=S)[nH]1 [thioguanine]
thermal shift assay (DSLS), concentration-dependent (Guanine deaminase [1]): followed in decreasing order by thioguanine, acyclovir, penciclovir, ganciclovir and mercaptopurine

O=c1[nH]c(=O)n([C@H]2C[C@H](O)[C@@H](CO)O2)cc1C(F)(F)F [trifluridine]
ΔTm at 500 µM (Uridine phosphorylase 1 [3]): 3.78 °C

CC(C)[C@H](N)C(=O)OCCOCn1cnc2c(=O)[nH]c(N)nc21 [valaciclovir]
ΔTm at 1000 µM (Guanine deaminase [4]): ~7 °C

Nc1ncnc2c1ncn2[C@@H]1O[C@H](CO)[C@@H](O)[C@@H]1O [vidarabine]
Ki (Uridine phosphorylase 1 [5]): 390 µM
